Literature values as cited in patent US20250295673A1, “TREATMENT OF BREAST CANCER” (priority 2024, published 2025).
Entries after “also recorded” stand apart in the source; their conditions may differ.

Tests used:
SHBG = target: T1, SHBG (Homo sapiens, UniProt P04278); conditions: releases testosterone, nandrolone, oxandrolone from SHBG
T1 sequence (P04278 30-402): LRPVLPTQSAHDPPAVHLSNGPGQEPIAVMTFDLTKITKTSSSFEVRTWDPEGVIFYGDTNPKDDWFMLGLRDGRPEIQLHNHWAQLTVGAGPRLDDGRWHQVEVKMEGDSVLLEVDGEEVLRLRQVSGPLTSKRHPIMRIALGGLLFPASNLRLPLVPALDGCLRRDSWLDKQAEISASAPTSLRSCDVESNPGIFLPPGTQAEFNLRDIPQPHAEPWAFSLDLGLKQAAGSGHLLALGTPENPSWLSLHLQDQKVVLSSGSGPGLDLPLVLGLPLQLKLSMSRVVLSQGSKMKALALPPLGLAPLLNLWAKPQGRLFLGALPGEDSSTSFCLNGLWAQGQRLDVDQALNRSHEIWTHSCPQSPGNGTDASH

brain oxytocin = conditions: topically applied vaginally
[1] = system: FSH (Follicle Stimulating Hormone) and LH (Leutinizing Hormone) release; conditions: nandrolone alone

Structure (SMILES)	net increase of androgens by release from SHBG (SHBG)	effect on brain oxytocin (brain oxytocin)	effect on FSH and LH release from the pituitary [1]
C[C@]12Cc3c[nH]nc3C[C@@H]1CC[C@@H]1[C@@H]2CC[C@@]2(C)[C@H]1CC[C@]2(C)O [stanozolol]	four-fold	increases brain oxytocin; also recorded: raises a user's oxytocin levels	
C[C@]12CC[C@H]3[C@@H](CCC4=CC(=O)CC[C@@H]43)[C@@H]1CC[C@@H]2O [nandrolone]			suppresses
